{"source": "patent US20130315886A1", "about": "“RETROELEMENTS AND MENTAL DISORDERS AND METHODS OF MEASURING L1 RETROTRANSPOSITION” (Salk Institute for Biological Studies, priority 2009, published 2013)", "key": {"MeCP2 and Sox2": {"test_system": "MeCP2 and Sox2", "assay": "Co-immunoprecipitation between MeCP2 and Sox2 in NSCs", "format": "cell-based, rat", "settings": "in the presence of 5-Aza", "experimental": "Immunofluorescence for EGFP was performed as previously described (11). A non-transgenic animal was used to measure the background fluorescence in the brain and to establish a threshold for detection. Western blotting was carried out using standard protocols with the following antibodies: mouse anti-Actin (1/500, Ambion), rabbit anti-MeCP2 (1/1000, Imgenex or Upstate), and rabbit anti-Sox2 (1/100, Chemicon). All secondary antibodies were purchased from Jackson ImmunoResearch. For co-immunoprecipitation, the Nuclear Complex Co-IP kit (Active Motif) was used, following the manufacturer's protocol with the highest stringency buffers."}, "[1]": {"test_system": "L1 promoter region (5′UTR)", "assay": "Chromatin immunoprecipitation (ChIP) on the endogenous rat L1 promoter region in NSCs", "format": "cell-based", "settings": "500 ng/ml, 4 days", "source_text": "ChIP assay was done essentially following the manufacturer's protocol using a ChIP assay kit (Upstate). Antibodies used were anti-MeCP2 (Upstate), Sox2 (Chemicon), and IgG. Purified DNA was amplified by PCR using primers for the rat L1 5′UTR promoter region (L1.3, accession # X03095)."}, "L1 5′UTR CpG islands": {"test_system": "L1 5′UTR CpG islands", "assay": "Bisulfite analysis of L1 5′UTR DNA methylation in NSCs", "format": "cell-based, rat", "settings": "treatment for 4-days", "experimental": "Genomic DNA from NSCs was isolated using standard phenol-chloroform extraction techniques. Subsequently, DNA was digested with the restriction enzyme EcoRI and the bisulfite conversion reaction was performed using the Epitect kit (Quiagen), following manufacturer's instructions. Primers were designed based on the rat L1 sequence Mlvi2, using Methyl Primer Express; […]. PCR products were cloned into TOPO TA 2.1 plasmids (Invitrogen) and 40 bacterial colonies were analyzed by sequencing."}, "L1 5′UTR promoter": {"test_system": "L1 5′UTR promoter", "assay": "L1 5′UTR-Luc luciferase reporter assay in MeCP2 KO neuroepithelial cells", "format": "cell-based, mouse", "settings": "Sox2 overexpression in MeCP2 KO neuroepithelial cells", "experimental": "Rat NSCs were isolated, characterized and cultured as described (31,32). For neuronal differentiation, cells were cultured in N2 medium (Invitrogen) containing retinoic acid (RA, 1 μM, Sigma) and forskolin (5 μM, Sigma) for 4 days (11). Freshly isolated neuroepithelial cells from time-pregnant midgestation (E11.5) telencephalons from WT and MeCP2 KO sibling mouse embryos from the same background (C57BL/6J) were briefly cultured for 2-3 passages in FGF-2 as described elsewhere (19). Primary skin fibroblasts were isolated from tail biopsy and cultured in DMEM (Invitrogen) with 10% FBS (Invitrogen). Samples of all isolated cells were used for genotyping using previously described primers (33). Plasmid transfections were done by electroporation following the manufacturer's instructions (Amaxa Biosystem).\nThe L1 5′UTR-Luc plasmid was methylated by […] according to the manufacturer's protocol. Complete methylation was checked by digestion with Hpa II restriction enzyme. Luciferase activity was measured with the Dual-Luciferase reporter assay system (Promega) according to the manufacturer's protocol. Luciferase activity was usually measured 48 h after transfection. A plasmid containing the Renilla luciferase gene was used as an internal control. All the experiments were done at least 3 times independently and transfection efficiency was about 30% for all samples. […]"}}}
{"compound": "Nc1ncn([C@@H]2O[C@H](CO)[C@@H](O)[C@H]2O)c(=O)n1", "note": "[5-Azacytidine]", "values": [{"measurement": "amount of MeCP2 in association with Sox2 in solution (Co-IP)", "setting": "MeCP2 and Sox2", "value": "increased the amount of MeCP2 in association with Sox2 in solution"}, {"measurement": "MeCP2 ChIP signal / association to the L1 promoter region", "setting": "[1]", "value": "the MeCP2 ChIP signal was lost"}, {"measurement": "Sox2 binding / association to the L1 promoter region (ChIP)", "setting": "[1]", "value": "did not prevent Sox2 binding to the L1 promoter"}, {"measurement": "MeCP2 ChIP signal / association to the L1 promoter region", "setting": "[1]; listed as 5-Azacitidine", "value": "reduced MeCP2"}, {"measurement": "Sox2 binding / association to the L1 promoter region (ChIP)", "setting": "[1]; listed as 5-Azacitidine", "value": "not Sox2 association"}, {"measurement": "methylation of the 5′UTR L1 region (5 CpG sites, bisulfite)", "setting": "L1 5′UTR CpG islands", "value": "completely removed methyl radicals"}]}
{"compound": "Sox2: transcriptional factor Sox2, overexpressed in MeCP2 KO neuroepithelial cells", "values": [{"measurement": "reduction of luciferase expression (L1 promoter activity)", "setting": "L1 5′UTR promoter", "value": "approximately 50%"}]}
